{"source": "patent US12359156B2", "about": "“Platform and method for testing antibiotic sensitivity of a polymicrobial infection” (Wisconsin Alumni Research Foundation, priority 2018, dated 2025)", "origin": "cited, not measured here", "tested_on": "infection (patients' bacterial pathogens)", "details": "phase 3 clinical trial"}
{"smiles": "CO/N=C(\\C(=O)N[C@@H]1C(=O)N2C(C(=O)O)=C(COC(C)=O)CS[C@H]12)c1csc(N)n1", "note": "[cefotaxime]", "values": [{"measurement": "patients who responded to the antibiotic therapy", "setting": "patients with a \"resistant\" antibiotic sensitivity test result", "result": 64, "unit": "%"}, {"measurement": "patients who would respond to the antibiotic therapy", "setting": "patients with a \"sensitive\" antibiotic sensitivity test result, best case scenario", "result": 93, "unit": "%"}]}
